# According to publication PMC6430112 (Xenobiotica; the fate of foreign compounds in biological …, 2018):
# “And” between values parts separate entries of the source, which are not always exact repeats. Identical values can stand only once.
# Columns and labels:
# CYP2A13 = molecular target: T1, CYP2A13 (Homo sapiens, UniProt Q16696); experiment: Oxidation by purified CYP2A13 in reconstituted monooxygenase system, LC-MS/MS; format: in vitro ADME; conditions: substrate flavanone
# T1 sequence (Q16696 1-494): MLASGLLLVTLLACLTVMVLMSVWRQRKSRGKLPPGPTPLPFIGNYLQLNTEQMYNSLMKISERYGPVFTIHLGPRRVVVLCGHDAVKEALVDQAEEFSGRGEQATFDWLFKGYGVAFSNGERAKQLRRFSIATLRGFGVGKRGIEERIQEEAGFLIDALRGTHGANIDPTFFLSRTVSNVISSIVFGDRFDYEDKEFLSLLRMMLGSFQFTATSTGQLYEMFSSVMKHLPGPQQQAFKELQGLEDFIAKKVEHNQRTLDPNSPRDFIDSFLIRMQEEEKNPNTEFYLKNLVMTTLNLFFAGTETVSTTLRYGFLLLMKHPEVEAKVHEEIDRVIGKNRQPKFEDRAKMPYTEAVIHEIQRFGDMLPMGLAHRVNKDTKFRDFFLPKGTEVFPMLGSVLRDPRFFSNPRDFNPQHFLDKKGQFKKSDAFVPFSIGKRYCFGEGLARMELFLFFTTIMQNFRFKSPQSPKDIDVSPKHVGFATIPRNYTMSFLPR
# CYP3A4 = CYP3A4 (Homo sapiens, UniProt P08684); experiment: Oxidation by purified CYP3A4 in reconstituted monooxygenase system, LC-MS/MS; format: in vitro ADME; conditions: substrate flavanone
# rat liver microsomes = conditions: ref Kagawa et al. (2004); cited from earlier work
# CYP1A2 = molecular target: T2, CYP1A2 (Homo sapiens, UniProt P05177); experiment: Oxidation by purified CYP1A2 in reconstituted monooxygenase system, LC-MS/MS; format: in vitro ADME; conditions: substrate flavanone
# T2 sequence (P05177 1-516): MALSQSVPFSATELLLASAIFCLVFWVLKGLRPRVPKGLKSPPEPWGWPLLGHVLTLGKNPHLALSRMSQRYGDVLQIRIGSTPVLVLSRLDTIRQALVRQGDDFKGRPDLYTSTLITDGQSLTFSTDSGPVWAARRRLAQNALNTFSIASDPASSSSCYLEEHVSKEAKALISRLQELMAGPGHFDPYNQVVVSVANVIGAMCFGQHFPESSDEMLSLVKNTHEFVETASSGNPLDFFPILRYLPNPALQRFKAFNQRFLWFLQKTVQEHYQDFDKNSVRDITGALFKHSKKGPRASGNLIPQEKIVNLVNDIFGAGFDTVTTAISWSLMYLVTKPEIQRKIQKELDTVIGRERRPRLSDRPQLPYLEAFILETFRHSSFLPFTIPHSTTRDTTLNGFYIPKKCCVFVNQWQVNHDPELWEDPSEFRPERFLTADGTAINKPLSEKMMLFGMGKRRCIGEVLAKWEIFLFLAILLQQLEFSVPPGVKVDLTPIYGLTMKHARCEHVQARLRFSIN
# wild-type CYP2A6 = conditions: substrate flavanone, ref Uno et al. (2013; 2015); cited from earlier work
# CYP2A6 = molecular target: T3, CYP2A6 (Homo sapiens, UniProt P11509); experiment: Oxidation by purified CYP2A6 in reconstituted monooxygenase system, LC-MS/MS; format: in vitro ADME; conditions: substrate flavanone
# T3 sequence (P11509 1-494): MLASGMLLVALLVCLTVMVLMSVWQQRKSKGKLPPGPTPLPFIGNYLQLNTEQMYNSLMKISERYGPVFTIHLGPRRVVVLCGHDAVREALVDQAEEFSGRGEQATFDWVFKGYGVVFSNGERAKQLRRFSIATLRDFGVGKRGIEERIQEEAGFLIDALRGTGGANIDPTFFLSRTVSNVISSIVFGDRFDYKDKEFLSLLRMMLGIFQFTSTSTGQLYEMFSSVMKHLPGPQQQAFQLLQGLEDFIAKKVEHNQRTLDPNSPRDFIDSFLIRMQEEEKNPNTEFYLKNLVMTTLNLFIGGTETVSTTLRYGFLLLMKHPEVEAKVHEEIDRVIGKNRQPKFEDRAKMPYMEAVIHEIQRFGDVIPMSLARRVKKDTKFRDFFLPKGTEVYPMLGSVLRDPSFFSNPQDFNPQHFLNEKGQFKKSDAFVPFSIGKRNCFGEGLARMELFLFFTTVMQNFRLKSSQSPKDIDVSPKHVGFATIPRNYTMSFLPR
# CYP1A1 = molecular target: T4, CYP1A1 (Homo sapiens, UniProt P04798); experiment: Oxidation by purified CYP1A1 in reconstituted monooxygenase system, LC-MS/MS; format: in vitro ADME; conditions: substrate flavanone
# T4 sequence (P04798 1-512): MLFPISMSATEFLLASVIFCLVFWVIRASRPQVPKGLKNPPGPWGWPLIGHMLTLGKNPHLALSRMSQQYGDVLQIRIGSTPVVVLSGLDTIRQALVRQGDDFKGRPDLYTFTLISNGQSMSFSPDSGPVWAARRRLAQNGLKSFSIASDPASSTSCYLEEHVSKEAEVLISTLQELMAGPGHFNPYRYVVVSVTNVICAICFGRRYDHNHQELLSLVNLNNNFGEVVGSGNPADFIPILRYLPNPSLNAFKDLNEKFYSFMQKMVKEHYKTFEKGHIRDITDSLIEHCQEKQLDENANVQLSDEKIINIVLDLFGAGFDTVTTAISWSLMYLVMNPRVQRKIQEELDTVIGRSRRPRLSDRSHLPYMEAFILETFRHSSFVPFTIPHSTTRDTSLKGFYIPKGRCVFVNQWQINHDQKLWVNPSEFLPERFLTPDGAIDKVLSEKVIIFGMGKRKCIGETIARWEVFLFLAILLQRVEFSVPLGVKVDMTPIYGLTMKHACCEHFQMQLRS
# CYP1B1 = molecular target: T5, CYP1B1 (Homo sapiens, UniProt Q16678); experiment: Oxidation by purified CYP1B1 in reconstituted monooxygenase system, LC-MS/MS; format: in vitro ADME; conditions: substrate flavanone
# T5 sequence (Q16678 1-543): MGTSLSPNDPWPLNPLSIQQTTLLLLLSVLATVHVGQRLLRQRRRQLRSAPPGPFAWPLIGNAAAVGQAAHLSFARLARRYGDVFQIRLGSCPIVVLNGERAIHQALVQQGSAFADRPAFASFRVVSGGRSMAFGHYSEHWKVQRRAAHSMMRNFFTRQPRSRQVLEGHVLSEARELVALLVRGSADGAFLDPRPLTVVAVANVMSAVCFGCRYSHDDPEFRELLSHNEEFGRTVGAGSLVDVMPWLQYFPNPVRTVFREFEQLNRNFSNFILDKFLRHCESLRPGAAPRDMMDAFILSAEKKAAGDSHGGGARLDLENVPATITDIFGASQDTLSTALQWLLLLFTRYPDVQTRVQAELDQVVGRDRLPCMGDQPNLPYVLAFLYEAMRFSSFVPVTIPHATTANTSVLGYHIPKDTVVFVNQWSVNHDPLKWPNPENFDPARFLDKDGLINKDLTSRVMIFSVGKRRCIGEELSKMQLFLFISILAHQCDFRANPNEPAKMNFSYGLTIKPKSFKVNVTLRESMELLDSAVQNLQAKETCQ
# CYP2C9 = CYP2C9 (Homo sapiens, UniProt P11712); experiment: Oxidation by purified CYP2C9 in reconstituted monooxygenase system, LC-MS/MS; format: in vitro ADME; conditions: substrate flavanone
# CYP2C9, sequence (P11712 whole entry): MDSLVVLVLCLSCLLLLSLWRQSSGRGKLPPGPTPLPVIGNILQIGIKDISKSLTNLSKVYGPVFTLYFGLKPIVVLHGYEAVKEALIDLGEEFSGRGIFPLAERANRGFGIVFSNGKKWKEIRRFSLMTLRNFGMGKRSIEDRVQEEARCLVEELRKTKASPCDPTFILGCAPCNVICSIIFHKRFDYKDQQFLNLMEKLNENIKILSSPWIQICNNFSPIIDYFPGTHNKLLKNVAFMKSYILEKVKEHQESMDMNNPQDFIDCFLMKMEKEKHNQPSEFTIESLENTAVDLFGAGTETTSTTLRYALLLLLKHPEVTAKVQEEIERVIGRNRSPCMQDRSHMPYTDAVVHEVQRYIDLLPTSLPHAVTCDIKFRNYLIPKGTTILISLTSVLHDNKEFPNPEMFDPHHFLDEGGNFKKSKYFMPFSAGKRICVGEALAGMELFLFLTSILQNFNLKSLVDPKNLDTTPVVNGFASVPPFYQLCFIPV
# CYP3A4, sequence (P08684 whole entry): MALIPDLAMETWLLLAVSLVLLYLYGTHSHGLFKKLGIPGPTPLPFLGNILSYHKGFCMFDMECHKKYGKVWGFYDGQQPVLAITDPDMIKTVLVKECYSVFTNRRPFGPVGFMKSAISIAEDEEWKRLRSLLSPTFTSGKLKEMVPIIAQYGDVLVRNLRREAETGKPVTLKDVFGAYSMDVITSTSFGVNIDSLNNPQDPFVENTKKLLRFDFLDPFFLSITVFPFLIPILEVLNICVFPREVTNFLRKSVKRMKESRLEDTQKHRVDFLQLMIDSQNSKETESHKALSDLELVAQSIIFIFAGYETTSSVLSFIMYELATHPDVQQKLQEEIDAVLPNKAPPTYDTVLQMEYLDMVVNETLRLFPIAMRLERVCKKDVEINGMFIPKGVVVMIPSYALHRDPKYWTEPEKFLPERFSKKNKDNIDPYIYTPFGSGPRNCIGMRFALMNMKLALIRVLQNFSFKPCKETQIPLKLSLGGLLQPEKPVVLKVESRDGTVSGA
smiles,measurement,setting,value
O=C1CC(c2ccccc2)Oc2ccccc21 (stereo not drawn) [flavanone],Formation of flavone and hydroxylated products: 2´-OHFva,CYP2A13,0.027 ± 0.002 nmol/min/nmol P450
same,Formation of flavone and hydroxylated products: 3´-OHFva,CYP2A13,0.011 ± 0.004 nmol/min/nmol P450
same,Formation of flavone and hydroxylated products: 4’´-OHFva,CYP2A13,0.013 ± 0.001 nmol/min/nmol P450
same,Formation of flavone and hydroxylated products: 6OHF,CYP2A13,0.004 ± 0.001 nmol/min/nmol P450
same,Formation of flavone and hydroxylated products: 6OHFva,CYP2A13,0.17 ± 0.01 nmol/min/nmol P450
same,Formation of flavone and hydroxylated products: 7OHF,CYP2A13,<0.001 nmol/min/nmol P450
same,Formation of flavone and hydroxylated products: 7OHFva,CYP2A13,0.005 ± 0.001 nmol/min/nmol P450
same,Formation of flavone and hydroxylated products: Flavone,CYP2A13,0.29 ± 0.02 nmol/min/nmol P450
same,Turnover rate of flavone formation,CYP2A13,0.29 min⁻¹
same,Formation of flavone and hydroxylated products: 2´-OHFva,CYP3A4,<0.001 nmol/min/nmol P450
same,Formation of flavone and hydroxylated products: 3´-OHFva,CYP3A4,<0.001 nmol/min/nmol P450
same,Formation of flavone and hydroxylated products: 4’´-OHFva,CYP3A4,<0.001 nmol/min/nmol P450
same,Formation of flavone and hydroxylated products: 6OHF,CYP3A4,<0.001 nmol/min/nmol P450
same,Formation of flavone and hydroxylated products: 6OHFva,CYP3A4,<0.001 nmol/min/nmol P450
same,Formation of flavone and hydroxylated products: 7OHF,CYP3A4,<0.001 nmol/min/nmol P450
same,Formation of flavone and hydroxylated products: 7OHFva,CYP3A4,<0.001 nmol/min/nmol P450
same,Formation of flavone and hydroxylated products: Flavone,CYP3A4,0.057 ± 0.011 nmol/min/nmol P450
same,Kinetic deuterium isotope effect for conversion of flavanone to flavone,rat liver microsomes,1.5
same,Formation of flavone and hydroxylated products: 2´-OHFva,CYP1A2,0.074 ± 0.012 nmol/min/nmol P450
same,Formation of flavone and hydroxylated products: 3´-OHFva,CYP1A2,0.117 ± 0.023 nmol/min/nmol P450
same,Formation of flavone and hydroxylated products: 4’´-OHFva,CYP1A2,0.33 ± 0.05 nmol/min/nmol P450
same,Formation of flavone and hydroxylated products: 6OHF,CYP1A2,<0.001 nmol/min/nmol P450
same,Formation of flavone and hydroxylated products: 6OHFva,CYP1A2,0.19 ± 0.02 nmol/min/nmol P450
same,Formation of flavone and hydroxylated products: 7OHF,CYP1A2,0.002 ± 0.002 nmol/min/nmol P450
same,Formation of flavone and hydroxylated products: 7OHFva,CYP1A2,0.009 ± 0.001 nmol/min/nmol P450
same,Formation of flavone and hydroxylated products: Flavone,CYP1A2,0.008 ± 0.001 nmol/min/nmol P450
same,Turnover number of formation of 2´-hydroxyflavanone,wild-type CYP2A6,0.32 min⁻¹
same,Formation of flavone and hydroxylated products: 2´-OHFva,CYP2A6; CYP2A6,4.76 ± 0.32 nmol/min/nmol P450
same,Formation of flavone and hydroxylated products: 3´-OHFva,CYP2A6; CYP2A6,0.031 ± 0.003 nmol/min/nmol P450
same,Formation of flavone and hydroxylated products: 4’´-OHFva,CYP2A6; CYP2A6,0.20 ± 0.01 nmol/min/nmol P450
same,Formation of flavone and hydroxylated products: 6OHF,CYP2A6; CYP2A6,0.003 ± 0.001 nmol/min/nmol P450
same,Formation of flavone and hydroxylated products: 6OHFva,CYP2A6; CYP2A6,1.29 ± 0.08 nmol/min/nmol P450
same,Formation of flavone and hydroxylated products: 7OHF,CYP2A6; CYP2A6,<0.001 nmol/min/nmol P450
same,Formation of flavone and hydroxylated products: 7OHFva,CYP2A6; CYP2A6,<0.001 nmol/min/nmol P450
same,Formation of flavone and hydroxylated products: Flavone,CYP2A6; CYP2A6,0.72 ± 0.06 nmol/min/nmol P450
same,Turnover number of 2´OHFva formation,CYP2A6; CYP2A6,4.8 nmol/min/nmol CYP2A6
same,Turnover number of 6OHFva formation,CYP2A6; CYP2A6,1.3 nmol/min/nmol CYP2A6
same,Turnover number of flavone formation,CYP2A6; CYP2A6,0.72 nmol/min/nmol CYP2A6
same,Turnover rate of 2´-hydroxyflavanone formation,CYP2A6; CYP2A6,4.8 min⁻¹ and 4.76 min⁻¹
same,Turnover rate of 6-hydroxyflavanone formation,CYP2A6; CYP2A6,1.3 min⁻¹ and 1.29 min⁻¹
same,Turnover rate of flavone formation,CYP2A6; CYP2A6,0.72 min⁻¹
same,Flavone formation turnover rate by CYP2A6 relative to CYP2A13,CYP2A6; CYP2A6 higher than CYP2A13,~ 3 fold
same,Formation of flavone and hydroxylated products: 2´-OHFva,CYP1A1,0.008 ± 0.004 nmol/min/nmol P450
same,Formation of flavone and hydroxylated products: 3´-OHFva,CYP1A1,0.004 ± 0.002 nmol/min/nmol P450
same,Formation of flavone and hydroxylated products: 4’´-OHFva,CYP1A1,0.074 ± 0.002 nmol/min/nmol P450
same,Formation of flavone and hydroxylated products: 6OHF,CYP1A1,0.002 ± 0.001 nmol/min/nmol P450
same,Formation of flavone and hydroxylated products: 6OHFva,CYP1A1,0.058 ± 0.008 nmol/min/nmol P450
same,Formation of flavone and hydroxylated products: 7OHF,CYP1A1,<0.001 nmol/min/nmol P450
same,Formation of flavone and hydroxylated products: 7OHFva,CYP1A1,0.007 ± 0.003 nmol/min/nmol P450
same,Formation of flavone and hydroxylated products: Flavone,CYP1A1,0.053 ± 0.003 nmol/min/nmol P450
same,Formation of flavone and hydroxylated products: 2´-OHFva,CYP1B1,0.046 ± 0.009 nmol/min/nmol P450
same,Formation of flavone and hydroxylated products: 3´-OHFva,CYP1B1,0.013 ± 0.002 nmol/min/nmol P450
same,Formation of flavone and hydroxylated products: 4’´-OHFva,CYP1B1,0.19 ± 0.04 nmol/min/nmol P450
same,Formation of flavone and hydroxylated products: 6OHF,CYP1B1,0.002 ± 0.001 nmol/min/nmol P450
same,Formation of flavone and hydroxylated products: 6OHFva,CYP1B1,0.33 ± 0.05 nmol/min/nmol P450
same,Formation of flavone and hydroxylated products: 7OHF,CYP1B1,<0.001 nmol/min/nmol P450
same,Formation of flavone and hydroxylated products: 7OHFva,CYP1B1,0.003 ± 0.001 nmol/min/nmol P450
same,Formation of flavone and hydroxylated products: Flavone,CYP1B1,0.046 ± 0.002 nmol/min/nmol P450
same,Formation of flavone and hydroxylated products: 2´-OHFva,CYP2C9,0.012 ± 0.001 nmol/min/nmol P450
same,Formation of flavone and hydroxylated products: 3´-OHFva,CYP2C9,0.003± 0.001 nmol/min/nmol P450
same,Formation of flavone and hydroxylated products: 4’´-OHFva,CYP2C9,0.040± 0.001 nmol/min/nmol P450
same,Formation of flavone and hydroxylated products: 6OHF,CYP2C9,<0.001 nmol/min/nmol P450
same,Formation of flavone and hydroxylated products: 6OHFva,CYP2C9,0.091± 0.001 nmol/min/nmol P450
same,Formation of flavone and hydroxylated products: 7OHF,CYP2C9,<0.001 nmol/min/nmol P450
same,Formation of flavone and hydroxylated products: 7OHFva,CYP2C9,<0.001 nmol/min/nmol P450
same,Formation of flavone and hydroxylated products: Flavone,CYP2C9,0.009 ± 0.002 nmol/min/nmol P450
